The text below walks through data of BindingDB's records for doi:10.1016/j.bmc.2016.11.012 (China Pharmaceutical University, 2017).

The term IC50 denotes the midpoint of a concentration-inhibition curve. Low values mean greater potency, high ones weaker potency.

A short description of the experiment: Inhibition of rabbit thrombin-induced platelet aggregation in rabbit platelet-rich plasma preincubated with rabbit liver microsomes for 4 hrs followed by addition to platelet. In general terms: Liver microsomes are vesicles of endoplasmic reticulum, rich in cytochrome P450 enzymes.
`CC(C)(C)OC(=O)/N=C(\N)c1ccc(CC2NCCn3c2nc2cc(C4(C(=O)N5CCCC5)CCCC4)ccc23)cc1` (stereo unspecified) gave an IC50 of 8.16 µM. For `Cc1nc(C)c(OC(=O)/N=C(\N)c2ccc(CC3NCCn4c3nc3cc(C5(C(=O)N6CCCC6)CCCC5)ccc34)cc2)nc1C` (stereo unspecified), 1.95 µM corresponded to half-maximal inhibition (IC50).

`CC(C)(C)OC(=O)/N=C(\N)c1ccc(CC2c3nc4cc(C5(C(=O)N6CCCC6)CCCC5)ccc4n3CCN2C(=O)OC(C)(C)C)cc1` (stereo unspecified) showed an IC50 greater than 1000 µM. The same measure for `CCOC(=O)/N=C(\N)c1ccc(CC2NCCn3c2nc2cc(C4(C(=O)N5CCCC5)CCCC4)ccc23)cc1` (stereo unspecified): 88.2 µM.

`CC(C)COC(=O)/N=C(\N)c1ccc(CC2NCCn3c2nc2cc(C4(C(=O)N5CCCC5)CCCC4)ccc23)cc1` (stereo unspecified) came in with an IC50 of 164 µM.

On to `N/C(=N\C(=O)OCc1ccccc1)c1ccc(CC2c3nc4cc(C5(C(=O)N6CCCC6)CCCC5)ccc4n3CCN2C(=O)OCc2ccccc2)cc1` (stereo unspecified), for which the 50% inhibitory concentration (IC50) is greater than 1000 µM. The compound `CCCCCCOC(=O)/N=C(\N)c1ccc(CC2NCCn3c2nc2cc(C4(C(=O)N5CCCC5)CCCC4)ccc23)cc1` (stereo unspecified) came in with an IC50 of 25.3 µM.

On to `N/C(=N\C(=O)OCc1ccccc1)c1ccc(CC2NCCn3c2nc2cc(C4(C(=O)N5CCCC5)CCCC4)ccc23)cc1` (stereo unspecified), for which half-maximal inhibition (IC50) was put at 91.2 µM.

`CC(C)COC(=O)/N=C(\N)c1ccc(CC2c3nc4cc(C5(C(=O)N6CCCC6)CCCC5)ccc4n3CCN2C(=O)OCC(C)C)cc1` (stereo unspecified) registered an IC50 greater than 1000 µM. The same measure for `CCCCCCOC(=O)/N=C(\N)c1ccc(CC2c3nc4cc(C5(C(=O)N6CCCC6)CCCC5)ccc4n3CCN2C(=O)OCCCCCC)cc1` (stereo unspecified): 91.5 µM; for `CCCCCCOC(=O)N=C(N)c1ccc(NCc2nc3cc(C(=O)N(CCC(=O)OCC)c4ccccn4)ccc3n2C)cc1` [BIBR-1048]: 0.554 µM.
